Measurements as given in patent publication US20240261268A1, “METHODS OF SLOWING AN INCREASE IN BRAIN VENTRICULAR VOLUME” (VANDA PHARMACEUTICALS INC., priority 2022, published 2024).

Columns and labels:
[1] = test system: adult subjects with relapsing MS; experiment: Phase III study: premature treatment discontinuation and deaths; assay type: in vivo
Procedure: A total of 1468 subjects were screened. Of those, 1133 subjects were randomized (567 to ponesimod 20 mg and 566 to teriflunomide 14 mg) across 162 sites in 28 countries, and 1131 subjects received at least one dose of study drug. The disposition of subjects is summarized in Table 1 and a summary of reasons (primary reason) for treatment discontinuation are shown in Table 2. Overall treatment and study discontinuation were balanced across both treatment arms. A total of 6.5% and 2.5% of the subjects discontinued due to AEs or tolerability related reasons in ponesimod 20 mg and teriflunomide 14 mg, respectively, while 1.9% and 4.3% discontinued due to efficacy related reasons. There were 2 deaths reported during the study—both on teriflunomide 14 mg.

[2] = test system: adult subjects with relapsing MS; experiment: 12-lead ECG heart rate and first-dose monitoring on Day 1; assay type: in vivo, human
Procedure: The incidence of treatment-emergent heart rate and rhythm (including hypotension) AESIs on Day 1 was higher in the ponesimod 20 mg arm (2.1%) than in the teriflunomide 14 mg arm (0.4%). However, the overall incidence of first dose AESI on Day 1 was low (2.1%) in ponesimod. None of these events were serious nor led to permanent discontinuation of study treatment. Discharge criteria at 4 hours post-dose were met for ca. 99% of subjects. […] ECG HR effect: nadir at 2 hours post-dose (siponimod—3-4 hours, fingolimod—around by 6 hours). Low incidence of low HR outliers (post-dose HR≤40 bpm), all 3 of them with a pre-treatment HR of <55 bpm, which is a known risk factor for post-dose bradycardia with SIP receptor modulators.
The mean heart rate reduction compared to pre-dose reached a maximum for ponesimod 20 mg at 2-hours post dose, −8.7 bpm compared to −1.7 bpm for teriflunomide 14 mg (FIG. 2).

[3] = test system: adult subjects with relapsing MS; experiment: MRI-based scaled brain ventricular volume (lateral + 3rd ventricle / ICV); assay type: in vivo, human
From the text: Efficacy variable/timepoint: The endpoint was increase in ventricular volume up to the end of study (EOS). All available data up to EOS, regardless of treatment discontinuation was included (ITT approach).
Ventricular Volume (VV) data were obtained from MRI images from patients that participated in the OPTIMUM study. Data were obtained from those patients who had MRI imagines at baseline week 60 and week 108. One pre-requisite was to select only those patients who had all images completed.
Ventricular volume was estimated from MRI images collected at baseline (BL), week 60 and week 108 for 428 subjects treated with ponesimod and 427 with teriflunomide. Lesions were identified using T2-weighted and Proton Density (PD) MRIs. Ventricles were segmented using lesion-filled T1 images using with the longitudinal stream in FreeSurfer 7. For each subject, scaled ventricular volume (V) was computed as the sum of lateral and 3rd ventricle volumes divided by the intracranial volume (ICV) and expressed as a percentage. Average V (V) and average change in V (ΔV) from baseline at weeks 60 and 108 were compared across treatment arms. Ventricular volumes were correlated with Multiple Sclerosis Functional Composite (MSFC), Paced Auditory Serial Addition Test (PASAT), Average Timed 25 Foot Walk (T25FW), Average 9-Hole Peg Test (9-HPT), Single Digit Modality Test (SDMT), FSIQ-RMS and Expanded Disability Score (EDSS).

[4] = test system: adult subjects with relapsing MS; experiment: Phase III study ponesimod 20 mg vs teriflunomide 14 mg: treatment-emergent adverse events (Safety Set)
Procedure: A prospective, multicenter, randomized, double-blind, active controlled, parallel-group, phase III, superiority study was conducted.
The treatment period consisted of an up-titration period (from Day 1 to 14) and a maintenance period (Day 15 until EOT).
To reduce the first-dose effect of ponesimod, an up-titration scheme was implemented from Day 1 to Day 14: • Days 1 and 2; 2 mg. • Days 3 and 4; 3 mg. • Days 5 and 6; 4 mg. • Day 7; 5 mg. • Day 8; 6 mg. • Day 9; 7 mg. • Day 10; 8 mg. • Day 11; 9 mg. • Days 12, 13, and 14; 10 mg. • Day 15 until EOT; 20 mg.
The Safety Set (SAF) included all randomized subjects who received at least one dose of study treatment. Subjects were analyzed based on actual treatment taken, not randomized treatment.

[5] = ponesimod 20 mg N=565, teriflunomide 14 mg N=566, Safety Set
[6] = ponesimod 20 mg, teriflunomide 14 mg
[7] = week 60 and week 108 vs baseline, ponesimod n=428, teriflunomide n=427
[8] = Day 1, ponesimod N=565, teriflunomide N=566, Safety Set
[9] = treatment-emergent, ponesimod 20 mg N=565, teriflunomide 14 mg N=566, Safety Set

## CCC/N=C1\S/C(=C\c2ccc(OC[C@H](O)CO)c(Cl)c2)C(=O)N1c1ccccc1C [ponesimod, (R)-5-[3-chloro-4-(2,3-dihydroxy-propoxy)-benz[Z]ylidene]-2-([Z]-propylimino)-3-o-tolyl-thiazolidin-4-one]
[1]; [5]
  Premature discontinuation: Death: 0 n
[1]; [6]
  Subjects discontinued due to AEs or tolerability related reasons: 6.5%
[2]; Day 1, 2 hours post dose, 12-lead ECG
  Mean heart rate reduction compared to pre-dose (maximum): −8.7 bpm
[2]; Day 1, first dose
  2nd or higher degree AV block: No 2nd or higher degree AV block was observed
  ECG HR effect: time of nadir / maximum mean heart rate reduction post-dose: 2 h
  Subjects meeting discharge criteria at 4 hours post-dose: ca. 99%
[2]; Day 1, all had pre-treatment HR <55 bpm
  Subjects with asymptomatic post-dose HR≤40 bpm: 3 subjects
[3]; week 60
  Rate of increase in ventricular volume lower compared to teriflunomide: 60%
[3]; week 60, p<0.001
  Difference in ventricular volume increase, ponesimod minus teriflunomide (Δ60V^pon−Δ60V^ter): −0.025%
[3]; week 60, p<0.001 vs baseline, ponesimod n=428, teriflunomide n=427
  Average change in scaled ventricular volume from baseline (Δ60V), percentage of ICV: 0.026%
[3]; [7]
  Reduction of atrophy compared to teriflunomide (FIGS. 4-6; 3rd and lateral ventricle): greater
  Ventricular enlargement compared to teriflunomide (FIG. 3): less
[3]; week 108
  Rate of increase in ventricular volume lower compared to teriflunomide: 45%
[3]; week 108, p<0.001
  Difference in ventricular volume increase, ponesimod minus teriflunomide (Δ108V^pon−Δ108V^ter): 0.043%
[3]; week 108, p<0.001 vs baseline, ponesimod n=428, teriflunomide n=427
  Average change in scaled ventricular volume from baseline (Δ108V), percentage of ICV: 0.067%
[4]; Day 1, ponesimod 20 mg arm, teriflunomide 14 mg arm
  Incidence of treatment-emergent heart rate and rhythm (including hypotension) AESIs on Day 1: 2.1%
[4]; [8]
  AESI effect on heart rate and rhythm (including hypotension) on Day 1: Subjects with at least one AE: 12(2.1) n (%)
  AESI heart rate and rhythm on Day 1, PT: Atrioventricular block first degree: 3(0.5) n (%)
  AESI heart rate and rhythm on Day 1, PT: Bradycardia: 4(0.7) n (%)
  AESI heart rate and rhythm on Day 1, PT: Bundle branch block left: 1(0.2) n (%)
  AESI heart rate and rhythm on Day 1, PT: Bundle branch block right: 1(0.2) n (%)
  AESI heart rate and rhythm on Day 1, PT: Defect conduction intraventricular: 2(0.4) n (%)
  AESI heart rate and rhythm on Day 1, PT: Electrocardiogram QT prolonged: 0 n (%)
  AESI heart rate and rhythm on Day 1, PT: Presyncope: 0 n (%)
  AESI heart rate and rhythm on Day 1, PT: Sinus arrhythmia: 1(0.2) n (%)
  AESI heart rate and rhythm on Day 1, PT: Sinus bradycardia: 1(0.2) n (%)
[4]; only if serious or severe, ponesimod 20 mg N=565, teriflunomide 14 mg N=566, Safety Set
  Treatment-emergent AESI: Infection: 9(1.6) n (%)
[4]; [5]
  TEAEs leading to premature discontinuation of study drug: Subjects with at least one AE: 49(8.7) n (%)
  TEAEs leading to premature discontinuation, SOC: Blood and lymphatic system disorders: 3(0.5) n (%)
  TEAEs leading to premature discontinuation, SOC: Cardiac disorders: 1(0.2) n (%)
  TEAEs leading to premature discontinuation, SOC: Eye disorders: 5(0.9) n (%)
  TEAEs leading to premature discontinuation, SOC: Gastrointestinal disorders: 4(0.7) n (%)
  TEAEs leading to premature discontinuation, SOC: General disorders and administration site conditions: 3(0.5) n (%)
  TEAEs leading to premature discontinuation, SOC: Hepatobiliary disorders: 3(0.5) n (%)
  TEAEs leading to premature discontinuation, SOC: Investigations: 12(2.1) n (%)
  TEAEs leading to premature discontinuation, SOC: Musculoskeletal and connective tissue disorders: 1(0.2) n (%)
  TEAEs leading to premature discontinuation, SOC: Neoplasms benign, malignant and unspecified (incl cysts and polyps): 1(0.2) n (%)
  TEAEs leading to premature discontinuation, SOC: Nervous system disorders: 2(0.4) n (%)
  TEAEs leading to premature discontinuation, SOC: Pregnancy, puerperium and perinatal conditions: 3(0.5) n (%)
  TEAEs leading to premature discontinuation, SOC: Psychiatric disorders: 1(0.2) n (%)
  TEAEs leading to premature discontinuation, SOC: Reproductive system and breast disorders: 0 n (%)
  TEAEs leading to premature discontinuation, SOC: Respiratory, thoracic and mediastinal disorders: 7(1.2) n (%)
  TEAEs leading to premature discontinuation, SOC: Skin and subcutaneous tissue disorders: 1(0.2) n (%)
  TEAEs leading to premature discontinuation, SOC: Social circumstances: 2(0.4) n (%)
  TEAEs leading to premature discontinuation, SOC: Surgical and medical procedures: 0 n (%)
  TEAEs leading to premature discontinuation, SOC: Vascular disorders: 3(0.5) n (%)
  Treatment-emergent AESI: Effect on heart rate and rhythm (including hypotension): 29(5.1) n (%)
  Treatment-emergent AESI: Hepatobiliary disorders/Liver enzyme abnormality: 145(25.7) n (%)
  Treatment-emergent AESI: Herpetic infection: 27(4.8) n (%)
  Treatment-emergent AESI: Hypertension: 57(10.1) n (%)
  Treatment-emergent AESI: Macular edema: 6(1.1) n (%)
  Treatment-emergent AESI: Non-skin malignancy: 1(0.2) n (%)
  Treatment-emergent AESI: Pulmonary events: 45(8.0) n (%)
  Treatment-emergent AESI: Seizure: 8(1.4) n (%)
  Treatment-emergent AESI: Skin malignancy: 5(0.9) n (%)
[4]; [6]
  AESI category hepatobiliary disorders/liver enzyme abnormality: 25.7%
  AESI category hypertension: 10.1%
  AESI category pulmonary events: 8.0%
  Proportion of subjects who experienced at least one SAE: 8.7%
  Proportion of subjects who experienced at least one TEAE: 88.8%
  TEAE: ALT increased: 19.5%
  TEAE: headache: 11.5%
  TEAE: nasopharyngitis: 19.3%
  TEAE: upper respiratory tract infection: 10.6%
  TEAEs leading to premature treatment discontinuation: 8.7%
[4]; [9]
  Subjects with at least one AE: 502(88.8) n (%)
  Subjects with at least one AE leading to study drug discontinuation: 49(8.7) n (%)
  Subjects with at least one Drug-Related AE: 278(49.2) n (%)
  Subjects with at least one Fatal AE: 0 n (%)
  Subjects with at least one Serious AE: 49(8.7) n (%)
  Subjects with at least one Severe AE: 39(6.9) n (%)
